Data set [1] in a line: Single ascending maximum tolerated dose study in rat. As to conditions: female Sprague-Dawley rats, 5 second IV bolus. In kind it is in vivo. As for the experimental part: Several compounds were assessed in single ascending maximum tolerated studies. The compounds assessed were 1810; 3408, a prodrug form of compound 1810; 1599, a chloro homologue of compound 1810; and gentamicin, an antimicrobial associated with ototoxicity. The study was carried out in female Sprague-Dawley rats (n=3 per group). All the drug solutions were prepared in water and PLASMA-LYTE A (50:50; […] was obtained from Baxter Healthcare Corporation, Deerfield, Ill.). Each group of rats were fasted overnight with access to water aJ libitum and a fixed volume (2 mL) of drug-containing solution was administered via the jugular vein catheter. Food was withheld for 3 h post dosing. Different phases of the study were classified on five different speeds of i.v, administration; Phase 1: 5 sec, Phase 2: 30 sec, Phase 3: 5 min, Phase 4: 15 min, Phase 5: 30 min. In the first and second phases, a set of predefined dose levels: 10, 25, 50, 75, 100, 150, 300, 350, 400, 450 and 500 mg/kg. Escalation to the next higher dose was conditional upon absence of signs of acute toxicity following the immediate lower dose over a 24 h period. All animals were monitored by visual inspection focused on focus on changes in skin, fur, eyes, and also respiratory, circulatory, autonomic and central nervous systems, along with somatomotor activity and behavior pattern, including tremors, convulsions, salivation, diarrhea, lethargy, sleep and coma. A dose level was deemed an MTD if […] of acute toxicity were observed and that dose was chosen for the second phase of the study where the process was repeated to determine a toxic dose. For third, fourth and fifth phases, dosing solution was infused by a Instech tethering system (Instech Laboratories Inc., Plymouth Meeting, Pa.) where the animal is freely moving within its cage, the catheter connection is held in place by a vascular access harness and a swivel system, and the drug administration is performed via a Harvard Apparatus programmable syringe pump. After dosing, the tether was removed immediately after completion of the infusion and the catheter was flushed with (100 μL) PlasmaLyte A. Surviving animals from the previous dose with no signs of toxicity were re-used in either phases of these studies upon allowing a one day drug washout period.

The nature of data set [2]: Pharmacokinetic study in rat. In kind it is in vivo, Sprague-Dawley rats. Particulars: intravenous. As to the method: LC-MS Method 1. Quantitative determination of the amount of a disclosed compound present in blood, plasma, or urinary can be determined by LC-MS/MS methods. Briefly, a suitable method involves use of calibrants (0.976, 1.95, 3.91, 7.81, 15.63, 31.25, 62.5, 125, 250, 500, 1000 ng/mL) were in sample matrix (e.g., rat plasma, blood or urine). A separate solution of disclosed compound (independent of calibrants) is used to prepare quality controls. Appropriate volumes of working solutions are added to the sample matrix to yield the final concentrations of 1, 50, 1000 ng/mL. Linearity for calibrants in duplicate is assessed by subjecting the spiked concentrations and the respective peak areas to least-square linear regression analysis with and without intercepts, and a weighted least-square regression (1/x or 1/x^2). The lowest limit of quantitation (LLOQ) in the standard curve measured with acceptable accuracy and precision for a disclosed compound from rat plasma has been previously established as 0.976 ng/mL for a representative compound, 1810. All samples are precipitated by the addition of 4-volumes (100 μL) of IS, 1369 (10 ng/mL) in methanol to a volume (25 μL) of plasma/urine test sample. The samples are vortexed (Fisher scientific, USA) for 30 sec and centrifuged at 10,000×g for 10 min at 4° C. and the supernatants are collected for LC-MS/MS analysis. Chromatographic separation is carried out using a Shimadzu Nexera XR (LC-20ADXR) liquid chromatograph (Shimadzu Corporation, USA) consisting of two pumps, online degasser, system controller and an auto sampler. Mobile phase consisting of a) water with 1.6% nonafluoropentanoic acid and 0.7% formic acid b) 90% acetonitrile with 0.8% nonafluoropentanoic acid and 0.35% formic acid can be used at a flow rate of 0.5 rnLirnin in gradient mode. A Waters® Symmetry ® 3.5μ C8, 50×2.1 mm column (Waters, Milford, Mass.) is used for the separation. Samples (5 μL) are injected on column and the eluate is provided directly to an API 5500 triple quadruple mass spectrometer (Applied Biosystems, Foster City, Calif.) equipped with a turbospray ion source operated in the positive ion mode. The optimized multiple reactions monitoring (MRM) conditions for 3408 (549.2A207.1), 1810 (469.2^207.1) and IS (418.3^207.1) are monitored with a declustering potential of 45 V and collision energy of 25 eV. Data are acquired and processed with Analyst software version 1.6.2 (Applied Biosystems, Foster City, Calif.).
Pharmacokinetic assessment of the disclosed compounds can be determined in a rat model as described herein. Briefly, catheterized male Sprague-Dawley rats from Harlan Bioscience (Indianapolis, Ind.), weighing 200-250 g, are kept at a 12 h light/dark cycle with access to food and water ad libitum. The procedures are approved by the Institutional Animal Care and Use Committee of the University of Tennessee Health Science Center. Formulations of a disclosed compound are prepared in water (50%) and PlasniaLyte A (50%). Test compound can be administered either via intravenous route (10 mg/kg) via femoral vein catheter with the study conducted using a group of 6 rats. Blood (250 μL) was collected via the jugular vein catheter at 0.08, 0.25, 0.5, 0.75, 1, 1.5, 2, 4, 6, 8, 10, 24 and 48 h after drug administration. Plasma was immediately separated by centrifugation (6,000×g for 10 min at 4° C.) and stored at −70° C. until analysis. The plasma concentration was determined as described herein above in LC-MS Method 1, and plasma concentration-time courses were fitted to a non-compartmental model using Phoenix WinNonlin 7.0 (Certara L. P., Princeton, NJ). Area under the concentration-time profile curve (AUC) was calculated by the log trapezoidal rule by log-linear regression and extrapolated to infinity by addition of the value Ct/λZ, where Ct is the concentration at the last time point, and λZ the terminal slope (determined by linear regression) of the log concentration-time curve. […]

The target in data set [3] is Mycobacterium smegmatis 70S bacterial ribosomes. The data set is described as follows: Ribosomal inhibition assay (luciferase-based protein synthesis inhibition). In kind it is biochemical. Particulars: purified M. smegmatis 70S ribosomes, firefly luciferase mRNA. As for the experimental part: In vitro activity was also assessed using a ribosomal inhibition assay. Briefly, luciferase-based protein synthesis inhibition assays were performed in translation reaction as described previously (Bruell, et al. Biochemistry. 2008 47 (34), 8828-8839), using purified Mycobacterium smegmatis 70S bacterial ribosomes and firefly luciferase mRNA prepared in vitro using T7 RNA polymerase. IC50 values represent the drug concentration that inhibits luciferase activity by 50%.

Molecules are shown by their SMILES.

In general, MTD refers to the largest dose that counted as tolerated. Regarding `CN[C@@H]1[C@H](O)[C@H](NC)[C@H]2O[C@]3(O)[C@H](O[C@@H]2[C@H]1O)O[C@H](C)C[C@H]3NC(=O)Cc1ccc(OP(=O)(O)O)cn1` [Compound 3408, 6-(2-oxo-2-(((2R,4R,4a5,5aR,6S,7S,8R,9S,9aR,10aS)-4a,7,9-trihydroxy-2-methyl-6,8-bis(methylamino)decahydro-2H-benzo[b]pyrano[2,3-e][1,4]dioxin-4-yl)amino)ethyl)pyridin-3-yl dihydrogen phosphate], in data set [1], the MTD is greater than 500 mg/kg. Also, in data set [1] (female, Sprague-Dawley, rat, in vivo, iv, read-out: MTD), the maximum tolerated dose (MTD) at 24 h is greater than 500 mg/kg. For the same molecule, in data set [2], the “In vivo conversion of prodrug to parent (in words)” value is on record as “rapidly converted in vivo to the parent drug form”. Also, the “IC50 (M. smegmatis)” value in data set [3] worked out at 6.70 µg/mL.

Values taken from patent US20210388012A1, “METHODS AND COMPOSITIONS FOR PRODRUG FORMS OF SPECTINOMYCIN AND SPECTINAMIDE ANALOGS” (priority 2018, published 2021).
